Consider four molecules from US20060051764A1, “Thymidylate synthase polymorphisms for use in screening for cancer susceptibility” (priority 2002, published 2006).

Data set [1] relates to disseminated colorectal cancer. The experiment in a line: Clinical outcome (response and survival) to protracted infusion of 5-FU in colorectal cancer patients by TS genotype. Type of data set: in vivo, human. As to the method: To explore the role of SNP as a predictive marker, 40 patients were evaluated with disseminated colorectal cancer (SWOG 9420 and 3C-92-2) for response and survival to protracted infusion of 5-fluorouracil. The distribution of the TS tandem repeat polymorphism was as follows: 2R/2R 20% (8/40), 2R/3R 50% (20/40), and 3R/3R 30% (12/40). […] This relationship also lacked statistical significant (P=0.14, Logrank Test).
Patient samples were re-classified into two groups based on predicted high and low TS expression using the tandem repeat polymorphism and the SNP. Since it was hypothesized that the SNP, or variant 3R (3RV) allele, would decrease the TS gene expression of a 3R allele, 21 patients were grouped with genotypes of 2R/2R, 2R/3RV and 3RV/3RV into the predicted “low TS expression” group (Group A) and 19 patients with 2R/3R, 3R/3RV, and 3R/3R into the predicted “high TS expression” group (Group B). These groups were then re-evaluated for an association between TS genotypes and clinical outcome to 5-FU chemotherapy.
The presence of the new SNP within the TS gene was confirmed in Non-Hispanic Whites. Individuals (disease-free controls) were initially recruited for a cancer case-control study in California as described in Castelao et al., 2001. Patients included in this study has metastatic colorectal cancer and were enrolled in the following protocols: Southwest Oncology Group protocol 9420 (19 patients, 5-FU doses used: CI (continuous infusion) 300 mg/m^2/d v. CI 2600 mg/m^2/d q weekly) opened for accrual in May 1995 and closed in May 1999; and the University of Southern California protocol: 3C-92-2 (21 patients, 5-FU doses used: CI 200 mg/m^2/d q weekly for three weeks followed by one week rest) opened for accrual in September 1992 and closed in June 1995. All patients signed an informed consent to participate in the clinical trial and for evaluation of the TS polymorphism. Genotyping for the TS polymorphism was performed on paraffin-embedded tissues in all patients.
All patients had bi-dimensionally measurable disease at the time of protocol entry. Responders to therapy were classified as those patients whose tumor burden (the sum, overall measurable lesions of the products of the largest diameter and its perpendicular diameter) decreased by 50% or more for at least six weeks. Progressive disease was defined as 25% or more increase in tumor burden (compared to the smallest measurement) or the appearance of new lesions.
Survival was computed as the number of months from the initiation of chemotherapy with 5-FU to death of any cause. Patients who were alive at the last follow-up evaluation were censored at that time.
Contingency tables and Fisher's exact test (Metha et al., 1983) were used to summarize the association of response (grouped as response, stable disease, and progressive disease) to 5-FU with the TS genotypes. Kaplan-Meier plots (Kaplan et al., 1958) and the log-rank test (Miller et al., 1981) were used to compare survival of patients according to TS genotypes. Median survival was calculated based on the Kaplan-Meier estimator. All p-values are two-sided.

For data set [2], the target named is T1, USF-1 phosphorylated by cdc2/p34 (Homo sapiens, UniProt P22415 P22415:1-310). The experiment in a line: EMSA; consensus probe; sequence taken from the listed USF-1 specific oligonucleotide. To be noted: tags: N-terminal 6xHis (pProEX-HTb, E. coli), in vitro phosphorylated with cdc2/p34; chain copies: 2; label: 32P when used as probe. As to the method: When both forms of USF-1 were used in an EMSA assay utilizing the perfect USF-1 consensus element as a probe, only the phosphorylated form was able to bind (FIG. 3B, lanes 2 and 3). Gel mobility shift analyses were performed using recombinant USF-1 with a ³²P-labeled USF-1 specific consensus probe containing an intact E-box site. Lane 1 contained only free probe. Lane 2 was 30 ng of recombinant phospho-USF-1 incubated with probe in the absence of unlabeled competitor oligonucleotides. Lane 3 contained 30 ng of recombinant unphosphorylated USF-1 incubated with probe in the absence of unlabeled specific competitor oligonucleotides. In lanes 4-5, phospho-USF-1 was pre-incubated with 500 molar excess of unlabeled USF-1 specific competitor oligonucleotide and 500 molar excess of nonspecific dIdC competitor, respectively.
Synthetic double-stranded oligonucleotides (Integrated DNA Technologies) corresponding to a wild type (R) or variant (RV) 28 bp tandem repeat sequence from the TS 5′ regulatory region were labeled with [γ-³²P] ATP (Amersham Pharmacia Biotech) according to the Gel-Shift Assay Kit protocol (Promega). For each gel shift reaction, 10,000 cpm of labeled probe 30 ng of recombinant USF-1 for 20 min at room temperature in a 20 μl reaction mixture containing 10 mM Tris-HCl, pH 7.5, 50 mM NaCl, 0.5 mM dithiothreitol, 0.5 mM EDTA, 4% glycerol, 1 mM MgCl₂ and 0.1 μg of poly(dIdC) DNA. […]

The target in data set [3] is T1, USF-1 phosphorylated by cdc2/p34. The experiment in a line: EMSA; 1 mM MgCl2, 50 mM NaCl, room temperature; abolished by USF-1 specific competitor. To be noted: tags: N-terminal 6xHis (pProEX-HTb, E. coli), in vitro phosphorylated with cdc2/p34; chain copies: 2; label: 32P. Here is the method:
To determine the ability of the phosphorylated form of USF-1 to bind to its consensus element within the TS repeat, an EMSA assay was carried out using the ³²P-labeled 28 bp sequence as a probe corresponding to one tandem repeat containing an intact E-box site. Lane 1 was free probe. In lane 2, 30 ng of recombinant USF-1 was incubated with probe in the absence of unlabeled competitor oligonucleotides. In lane 3, 30 ng of phospho-USF-1 was incubated with probe in the absence of unlabeled competitor oligonucleotides. In lanes 4-6, phospho-USF-1 was pre-incubated with 500 molar excess of: unlabeled probe, USF-1 specific competitor, and non-specific poly (dIdC) competitor oligonucleotides, respectively. Incubation of the phosphorylated form of USF-1 with the probe caused a shift on the gel that was abolished by the addition of unlabeled specific competitor oligonucleotides (FIG. 3C, lanes 3 and 5).
Synthetic double-stranded oligonucleotides (Integrated DNA Technologies) corresponding to a wild type (R) or variant (RV) 28 bp tandem repeat sequence from the TS 5′ regulatory region were labeled with [γ-³²P] ATP (Amersham Pharmacia Biotech) according to the Gel-Shift Assay Kit protocol (Promega). […]

Data set [4] shares this target. The experiment in a line: EMSA; 1 mM MgCl2, 50 mM NaCl, room temperature. To be noted: tags: N-terminal 6xHis (pProEX-HTb, E. coli), in vitro phosphorylated with cdc2/p34; chain copies: 2; label: 32P. Here is the method:
Since the potential G→C SNP at the 12th nucleotide of the 28 bp repeats lies within the USF binding site, the ability of the recombinant USF-1 protein to bind the variant consensus element by EMSA was tested. […] Gel mobility shift analyses were performed using recombinant USF-1 with a ³²P-labeled 28 bp probe corresponding to one tandem repeat containing a G→C base change at the 12th nucleotide. Lane 1 was free probe. In lane 2, 30 ng of recombinant USF-1 was incubated with probe. In lane 3, 30 ng of phospho-USF-1 was incubated with probe.
Synthetic double-stranded oligonucleotides (Integrated DNA Technologies) corresponding to a wild type (R) or variant (RV) 28 bp tandem repeat sequence from the TS 5′ regulatory region were labeled with [γ-³²P] ATP (Amersham Pharmacia Biotech) according to the Gel-Shift Assay Kit protocol (Promega). For each gel shift reaction, 10,000 cpm of labeled probe 30 ng of recombinant USF-1 for 20 min at room temperature in a 20 μl reaction mixture containing 10 mM Tris-HCl, pH 7.5, 50 mM NaCl, 0.5 mM dithiothreitol, 0.5 mM EDTA, 4% glycerol, 1 mM MgCl₂ and 0.1 μg of poly(dIdC) DNA. Where indicated, unlabeled competitor oligonucleotides were incubated for 10 min at room temperature with nuclear extracts prior to addition of labeled probe.
Reactions using recombinant USF-1 contained ˜30 ng of either USF-1 or phospho USF-1. […]

Setting [5] is: patients with TS genotype 2R/2R (n = 8).
[6] abbreviates: patients with TS genotype 2R/3R (n = 20).
Setting [7] is: patients with TS genotype 3R/3R (n = 12).

T1 sequence (P22415 whole entry, one chain of several): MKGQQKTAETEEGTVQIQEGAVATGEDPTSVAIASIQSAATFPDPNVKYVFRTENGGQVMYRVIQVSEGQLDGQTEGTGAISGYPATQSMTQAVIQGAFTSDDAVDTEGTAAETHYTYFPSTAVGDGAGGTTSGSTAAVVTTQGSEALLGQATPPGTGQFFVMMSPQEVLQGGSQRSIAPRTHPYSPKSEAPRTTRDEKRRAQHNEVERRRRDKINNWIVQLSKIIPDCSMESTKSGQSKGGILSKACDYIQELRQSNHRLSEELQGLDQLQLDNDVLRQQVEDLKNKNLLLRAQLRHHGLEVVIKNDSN

For the molecule `O=c1[nH]cc(F)c(=O)[nH]1` [5-FU, 5-fluorouracil], the figures for the median survival in data set [1] (3R/3R carriers), in data set [1] (heterozygous group (2R/3R)) and in data set [1] (patients with TS genotype 2R/2R) were 8.4 months, 7.4 months and 16.2 months, respectively. Also, the survival in data set [1] (Group A, predicted low TS expression (2R/2R, 2R/3RV, 3RV/3RV)) is 10.1 months; in data set [1] (Group B, predicted high TS expression (2R/3R, 3R/3RV, 3R/3R)) it was 7.4 months. Also, the “Clinical Response: Stable Disease” value is listed as 4 (19%) in data set [1] (Group A, predicted low TS expression: 2R/2R, 2R/3RV, 3RV/3RV (n = 21)); 7 (37%) in data set [1] (Group B, predicted high TS expression: 2R/3R, 3R/3R, 3R/3RV (n = 19)); 1 (13%) in data set [1] (setting [5]); 5 (25%) in data set [1] (setting [6]); 5 (42%) in data set [1] (setting [7]). Moreover, the “Clinical Response: Progression” value in data set [1] (setting [5]) is 3 (37%); in data set [1] (setting [6]), 12 (60%); in data set [1] (setting [7]), 7 (58%). Also, the “disease response (patients responding/total)” value in data set [1] (patients with TS genotype 3R/3R) was 0/12. For the same molecule, in data set [1] (setting [7]), the “Clinical Response: Response” value is 0 (0%).

B1: USF-1 consensus oligonucleotide (dsDNA)
DNA 1: CACCCGGTCACGTGGCCTACACC
DNA 2: GGTGTAGGCCACGTGACCGGGTG
For B1, the binding result in data set [2] is given as “binds”.

B2: TS wild-type tandem repeat (R) (dsDNA)
DNA 1: CCGCGCCACTTGGCCTGCCTCCGTCCCG
DNA 2: CGGGACGGAGGCAGGCCAAGTGGCGCGG
For B2, in data set [3], the binding result is recorded as “binds”.

B3: TS variant tandem repeat (RV) (dsDNA)
DNA 1: CCGCGCCACTTCGCCTGCCTCCGTCCCG
DNA 2: CGGGACGGAGGCAGGCGAAGTGGCGCGG
Regarding B3, the binding result in data set [4] is “no binding”.
